Results as given in ChEMBL document CHEMBL1201862, “PubChem BioAssay data set” (2004).
The source made the active and inactive calls. Cut-off read from the data, not from the text of the source: actives have a measured IC50 and inactives only a lower limit.

Target: Envelope glycoprotein gp160 (Human immunodeficiency virus 1, UniProt Q6QLK5)
Experiment: inhibitors of HIV fusion peptide binding, primary screen, biochemical, uHTS, fluorescence dequenching (AID 1986)

Chain of Envelope glycoprotein gp160 (Q6QLK5 whole entry, the tested form may be a part): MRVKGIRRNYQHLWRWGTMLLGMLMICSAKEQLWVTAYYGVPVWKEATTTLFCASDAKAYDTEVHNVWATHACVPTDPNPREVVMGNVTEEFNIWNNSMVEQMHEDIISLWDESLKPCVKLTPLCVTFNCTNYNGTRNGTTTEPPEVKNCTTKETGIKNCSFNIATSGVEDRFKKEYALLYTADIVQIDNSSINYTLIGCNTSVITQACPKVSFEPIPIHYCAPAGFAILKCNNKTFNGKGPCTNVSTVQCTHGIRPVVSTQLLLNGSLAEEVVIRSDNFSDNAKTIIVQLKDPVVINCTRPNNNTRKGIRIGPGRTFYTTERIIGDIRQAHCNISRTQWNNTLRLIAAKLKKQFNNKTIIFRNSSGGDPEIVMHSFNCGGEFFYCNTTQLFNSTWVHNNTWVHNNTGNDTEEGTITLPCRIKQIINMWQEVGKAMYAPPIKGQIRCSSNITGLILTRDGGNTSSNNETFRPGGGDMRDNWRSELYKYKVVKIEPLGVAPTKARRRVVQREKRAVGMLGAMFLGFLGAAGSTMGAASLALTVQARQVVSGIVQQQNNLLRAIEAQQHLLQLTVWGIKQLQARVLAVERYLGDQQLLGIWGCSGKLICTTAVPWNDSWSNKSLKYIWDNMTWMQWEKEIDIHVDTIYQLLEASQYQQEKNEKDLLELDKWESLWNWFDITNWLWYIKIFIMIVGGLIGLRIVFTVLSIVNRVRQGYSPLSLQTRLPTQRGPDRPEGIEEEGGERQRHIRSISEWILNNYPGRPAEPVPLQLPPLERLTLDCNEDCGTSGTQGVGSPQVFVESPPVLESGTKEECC

In the case of `Cc1cc(C)c2nc(N3C(=O)C(O)=C(C(=O)c4ccco4)C3c3ccco3)sc2c1` (stereo unspecified), the IC50 is reported as 12.4 µM (active).
